Data published in patent US10620222B2, “Electrified compositions for determining the risk of developing adolescent idiopathic scoliosis through the use of GI protein receptor” (CHU Sainte-Justine, priority 2008, dated 2020).
Where “and” joins values, the source holds several entries; their conditions need not be identical. Equal entries are not always repeated.

Tested on: receptors coupled to Gi proteins expressed on osteoblasts
Assay: Cellular Dielectric Spectroscopy (CDS, CELLKEY) response to Gi-coupled receptor ligands in osteoblasts from control and AIS subjects
Format: cell-based, human
Set-up: % of control / % of control signal, Group 1, min diff. / % of control signal, Group 2, min diff. / % of control signal, Group 3, min diff.: concentration or dose not given beside the values; dZiec value / Absolute dZiec, control value of max diff. (maximal control value): unit not given here
Conditions: for dZiec value / Absolute dZiec, control value of max diff. (maximal control value) / Absolute dZiec, control value of min diff. (minimal control value) / Absolute dZiec, Group 1, max diff. (group value) / Absolute dZiec, Group 1, min diff. (group value) / Absolute dZiec, Group 2, max diff. (group value) / Absolute dZiec, Group 2, min diff. (group value) / Absolute dZiec, Group 3, max diff. (group value) / Absolute dZiec, Group 3, min diff. (group value): 300 μM ligand; for dZiec value: n1, n2 of Exper. 1-3; for Absolute dZiec, control value of max diff. (maximal control value) / Absolute dZiec, control value of min diff. (minimal control value): osteoblasts of control subjects; for Absolute dZiec, control value of max diff. (maximal control value) / Absolute dZiec, control value of min diff. (minimal control value) / Absolute dZiec, Group 1, max diff. (group value) / Absolute dZiec, Group 1, min diff. (group value) / Absolute dZiec, Group 2, max diff. (group value) / Absolute dZiec, Group 2, min diff. (group value) / Absolute dZiec, Group 3, max diff. (group value) / Absolute dZiec, Group 3, min diff. (group value): from FIGS. 11A-11F; for Absolute dZiec, Group 1, max diff. (group value) / Absolute dZiec, Group 1, min diff. (group value) / % of control signal, Group 1, max diff. / % of control signal, Group 1, min diff. / Absolute dZiec, Group 2, max diff. (group value) / Absolute dZiec, Group 2, min diff. (group value) / % of control signal, Group 2, max diff. / % of control signal, Group 2, min diff. / Absolute dZiec, Group 3, max diff. (group value) / Absolute dZiec, Group 3, min diff. (group value) / % of control signal, Group 3, max diff. / % of control signal, Group 3, min diff.: osteoblasts; for Absolute dZiec, Group 1, max diff. (group value): AIS Group 1 value of max diff.; for Absolute dZiec, Group 1, min diff. (group value): AIS Group 1 value of min diff.; for % of control signal, Group 1, max diff.: AIS Group 1 vs maximal control value; for % of control signal, Group 1, min diff.: AIS Group 1 vs minimal control value; for Absolute dZiec, Group 2, max diff. (group value): AIS Group 2 value of max diff.; for Absolute dZiec, Group 2, min diff. (group value): AIS Group 2 value of min diff.; for % of control signal, Group 2, max diff.: AIS Group 2 vs maximal control value; for % of control signal, Group 2, min diff.: AIS Group 2 vs minimal control value; for Absolute dZiec, Group 3, max diff. (group value): AIS Group 3 value of max diff.; for Absolute dZiec, Group 3, min diff. (group value): AIS Group 3 value of min diff.; for % of control signal, Group 3, max diff.: AIS Group 3 vs maximal control value; for % of control signal, Group 3, min diff.: AIS Group 3 vs minimal control value
Description: Bone specimens were obtained intraoperatively from vertebras (varying from T3 to L4 according to the surgical procedure performed), while with trauma cases used as non-scoliotic controls bone specimens were obtained from other anatomical sites (tibia or femur, and in one case from an iliac crest biopsy). Osteoblasts and myoblasts isolated as previously described (Moreau A, Wang D S, Forget S et al. Melatonin Signaling Dysfunction in Adolescent Idiopathic Scoliosis. Spine 2004; 29:1772-81; Azeddine et al., 2007 Molecular determinants of melatonin signaling dysfunction in adolescent idiopathic scoliosis. Clin Orthop Relat Res. 2007, 462:45-52), were cultured at 37° C./5% CO2 in MEM supplemented with 10% fetal bovine serum (FBS) and 100 μg/mL streptomycin. Prior to the experiment, cells were seeded into the CELLKEY™ label-free cellular analysis system standard 96-well plates at a density of 5×10^4/well and grown for 24 h and incubated in standard conditions (37° C./5% CO2). In some plates, Pertussis toxin (100 ng/mL, Sigma, Oakville, ON, Canada) treatment was performed 16 h before the CDS assay. Following overnight incubation, plates were placed onto the CELLKEY™ label-free cellular analysis system and growth medium was exchanged to assay buffer (Hanks, Balanced Salt Solution containing 20 mM HEPES and 0.1% BSA) before starting the experiment. Cells were then allowed to equilibrate at room temperature for 30 min. Pre-addition measurements were made for 5 min to obtain a baseline reading. […] The quick update rate (2 s.) of the CELLKEY™ label-free cellular analysis system allows detection of these immediate changes in impedance. Impedance measurements were collected for 10 min to 15 min at 28° C. after ligand addition to monitor cellular responses to ligand interaction and to generate CELLKEY™ label-free cellular analysis system response profiles that are characteristic of the signaling mechanisms used.
The response induced by the various ligands to their receptors was measured by cellular dielectric spectroscopy (CDS) using the CELLKEY™ label-free cellular analysis technology. (MDS Sciex, San Francisco, Calif., USA). The CELLKEY™ label-free cellular analysis system integrates a proprietary impedance measurement system, custom 96-well microliter plate, onboard 96-well fluidics, and environment control and custom acquisition and analysis software in a full solution package (MDS Sciex) that is compatible with commercially available robotic platforms. Small voltage at 24 frequencies, from 1 KHz to 10 MHz, is applied to a monolayer of cells settled in a 96-well microplate containing electrodes at the bottom, and the resultant current is measured at an update rate of 2 s. […] Onboard fluid additions and exchanges are handled by 96-well head fluid delivery device with a range of 5-500 μL. In addition to the cell plate location, the CELLKEY™ label-free cellular analysis system includes two additional stations for 96- or 384-well compound plates. All aspects of assay set up, execution, and data acquisition and analysis are controlled by CELLKEY™ label-free cellular analysis software.
The minimal (min) and maximal (max) values represent the mean of three independent measurements performed in duplicate (six values in total) for a given patient/control subject. […] Duplicates (n1 and n2) of three independent experiments are presented.

[1] = osteoblasts of AIS#1020 (Group 3) relative to CTR#60
[2] = osteoblasts of AIS#1020 (Group 3)
[3] = osteoblasts of AIS#1198 (Group 3 in Table II) relative to CTR#69
[4] = osteoblasts of AIS#1198 (Group 3 in Table II)
[5] = osteoblasts of AIS#1385 (Group 2) relative to CTR#69
[6] = osteoblasts of AIS#1385 (Group 2)
[7] = osteoblasts of AIS#1468 (Group 3) relative to CTR#61
[8] = osteoblasts of AIS#1468 (Group 3)
[9] = osteoblasts of AIS#1474 (Group 1) relative to CTR#60
[10] = osteoblasts of AIS#1474 (Group 1)
[11] = osteoblasts of AIS#1488 (Group 1) relative to CTR#69
[12] = osteoblasts of AIS#1488 (Group 1)
[13] = osteoblasts of AIS#1513 (Group 3) relative to CTR#61
[14] = osteoblasts of AIS#1513 (Group 3)
[15] = osteoblasts of AIS#1550 (Group 2) relative to CTR#60
[16] = osteoblasts of AIS#1550 (Group 2)

Row | Structure (SMILES) | % of control [1] | dZiec value [2] | % of control [3] | dZiec value [4] | % of control [5] | dZiec value [6] | % of control [7] | dZiec value [8] | % of control [9] | dZiec value [10] | % of control [11] | dZiec value [12] | % of control [13] | dZiec value [14] | % of control [15] | dZiec value [16] | dZiec value (osteoblasts of control CTR#60) | dZiec value (osteoblasts of control CTR#61) | dZiec value (osteoblasts of control CTR#69) | Absolute dZiec, control value of max diff. (maximal control value) | further results
1 | O=C(NC1CCCCC1)c1cn(CCN2CCOCC2)c2cc(Cl)ccc2c1=O [CB65, N-Cyclohexyl-7-chloro-1-[2-(4-morpholinyl)ethyl]quinolin-4(1H)-one-3-carboxamide] | 43.1% and 47.5% and 45.6% and 43.5% and 46.2% | 61.81 and 73.81 and 74.95 and 82.95 and 69.38 and 77.38 | 51.5% and 55.2% and 57.8% and 59.7% and 55.1% and 57.3% | 72.90 and 84.90 and 94.57 and 102.57 and 84.73 and 92.73 | 46.7% and 50.9% and 51.8% and 54.1% and 49.8% and 52.3% | 66.15 and 78.15 and 84.86 and 92.86 and 76.50 and 84.50 | 57.0% and 60.3% and 64.0% and 65.6% and 61.0% and 62.9% | 82.16 and 94.16 and 107.91 and 115.91 and 96.04 and 104.04 | 25.3% and 24.7% and 26.9% and 24.6% and 23.5% and 27.2% | 36.30 and 38.30 and 46.79 and 44.79 and 37.55 and 45.55 | 29.2% and 28.2% and 33.2% and 30.5% and 28.5% and 32.1% | 41.30 and 43.30 and 54.43 and 52.43 and 43.87 and 51.87 | 74.8% and 76.7% and 76.6% and 77.6% and 75.9% and 77.1% | 107.73 and 119.73 and 129.10 and 137.10 and 119.41 and 127.41 | 38.5% and 36.8% and 38.3% and 35.5% and 35.6% and 38.7% | 55.13 and 57.13 and 66.49 and 64.49 and 56.81 and 64.81 | 143.28/— and 155.28/— and 173.77/— and 181.77/— and 159.53/— and 167.53/— | 144.08/— and 156.08/— and 168.59/— and 176.59/— and 157.34/— and 165.34/— | 141.68/— and 153.68/— and 163.73/— and 171.73/— and 153.70/— and 161.70/— | 169 | % of control (osteoblasts of AIS#1549 (Group 1) relative to CTR#61): 25.3% and 18.2% and 19.1% and 22.8% and 19.3% and 23.2%; dZiec value (osteoblasts of AIS#1549 (Group 1)): 36.48 and 28.48 and 32.23 and 40.23 and 30.36 and 38.36; Absolute dZiec, control value of min diff. (minimal control value): 138; Absolute dZiec, Group 1, max diff. (group value): 34; Absolute dZiec, Group 1, min diff. (group value): 47; % of control signal, Group 1, max diff.: 20%; % of control signal, Group 1, min diff.: 34%; Absolute dZiec, Group 2, max diff. (group value): 60; Absolute dZiec, Group 2, min diff. (group value): 88; % of control signal, Group 2, max diff.: 36%; % of control signal, Group 2, min diff.: 64%; Absolute dZiec, Group 3, max diff. (group value): 100; Absolute dZiec, Group 3, min diff. (group value): 123; % of control signal, Group 3, max diff.: 55%; % of control signal, Group 3, min diff.: 89%
2 | CNC(=O)[C@H]1O[C@@H](n2cnc3c(NCc4cccc(I)c4)ncnc32)[C@H](O)[C@@H]1O [IB-meca, 1-Deoxy-1-[6-[[(3-iodophenyl)methyl]amino]-9H-purin-9-yl]-N-methyl-β-D-ribofuranuronamide] | 50.1% and 47.6% and 50.6% and 47.2% and 47.5% and 50.0% | 74.19 and 76.19 and 87.32 and 85.32 and 76.76 and 84.76 | 41.1% and 45.4% and 47.8% and 50.0% and 45.1% and 47.6% | 63.58 and 75.58 and 85.63 and 93.63 and 75.61 and 83.61 | 47.6% and 45.3% and 47.5% and 44.4% and 44.9% and 47.4% | 73.49 and 75.49 and 85.15 and 83.15 and 75.32 and 83.32 | 77.6% and 79.5% and 78.4% and 78.2% and 79.4% | 98.77 and 110.77 and 121.90 and 129.90 and 111.34 and 119.34 | 21.1% and 18.9% and 21.2% and 20.8% and 18.5% and 22.4% | 31.25 and 30.25 and 36.61 and 37.61 and 29.93 and 37.93 | 25.5% and 24.8% and 26.8% and 24.5% and 23.6% and 27.1% | 39.34 and 41.34 and 47.91 and 45.91 and 39.63 and 47.63 | 61.6% and 64.9% and 67.0% and 68.6% and 64.8% and 66.7% | 78.36 and 90.36 and 104.12 and 112.12 and 92.24 and 100.24 | 44.2% and 42.1% and 47.0% and 43.8% and 42.9% and 45.6% | 65.47 and 67.47 and 81.23 and 79.23 and 69.35 and 77.35 | 148.22/— and 160.22/— and 172.73/— and 180.73/— and 161.48/— and 169.48/— | 127.27/— and 139.27/— and 155.44/— and 163.44/— and 142.36/— and 150.36/— | 154.52/— and 166.52/— and 179.10/— and 187.10/— and 167.81/— and 175.81/— | 172 | Absolute dZiec, control value of min diff. (minimal control value): 132; Absolute dZiec, Group 1, max diff. (group value): 20; Absolute dZiec, Group 1, min diff. (group value): 43; % of control signal, Group 1, max diff.: 12%; % of control signal, Group 1, min diff.: 33%; Absolute dZiec, Group 2, max diff. (group value): 73; Absolute dZiec, Group 2, min diff. (group value): 80; % of control signal, Group 2, max diff.: 42%; % of control signal, Group 2, min diff.: 61%; Absolute dZiec, Group 3, max diff. (group value): 98; Absolute dZiec, Group 3, min diff. (group value): 115; % of control signal, Group 3, max diff.: 55%; % of control signal, Group 3, min diff.: 87%
